From publication PMC12703428, “Development of Granzyme A Turn‐ON Fluorescent Activity‐Based Probes” (Chembiochem, 2025)
Square brackets hold non-standard residues; d marks the D form. Ends that are not written are not given here. Oic = O=C(O)[C@@H]1C[C@@H]2CCCC[C@@H]2N1; Tic = O=C(O)[C@@H]1Cc2ccccc2CN1

Legend:
[1] = molecular target: T1, mouse GzmA (mGzmA) (Mus musculus, UniProt P11032); test: In-gel fluorescence labeling of mGzmA; format: biochemical; conditions: mGzmA 1 μM, 24 h, 37 °C; for Labeling of mGzmA (in-gel Cy5 fluorescence): probe 200 nM or 1 μM
T1 construct: CSB-EP010081MO for active, mature form; purchased Cusabio CSB-EP010081MO
T1 sequence (P11032 29-260): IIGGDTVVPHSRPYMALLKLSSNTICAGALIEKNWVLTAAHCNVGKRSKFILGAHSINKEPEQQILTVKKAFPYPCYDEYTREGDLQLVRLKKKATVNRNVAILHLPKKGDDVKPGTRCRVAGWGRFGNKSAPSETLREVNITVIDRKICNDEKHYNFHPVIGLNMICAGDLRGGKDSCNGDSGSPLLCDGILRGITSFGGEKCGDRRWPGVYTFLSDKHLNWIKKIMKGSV
Procedure: Figure 3 GzmA ABPs covalently and competitively label active human and mouse GzmA. […] Recombinant hGzmA (100 nM) was incubated with varying concentrations of each ABP at 37 °C. B) Competitive labeling of hGzmA. Recombinant hGzmA (100 nM) was preincubated with covalent inhibitors 1 or 2 (5 μM) for 2 h, followed by labeling with ABPs 3 –5 (50 nM) for 2 h at 37 °C. Note: Pro‐form of hGzmA (the first lane) is not effectively stained by SYPRO‐Ruby. C) Structure of qABP 6. D) Quenched natures of 5 and 6. […] F) Labeling of mGzmA (1 μM) with 5 and 6 (1 μM, 24 h, 37 °C). Protein samples were analyzed by SDS‐PAGE and in‐gel fluorescence scanning for Cy5 signal and SYPRO Ruby staining.
Sulfo-Cy5 N N P O 1 µM 100 nM
7 HN NH2 In-gel fluorescence: […]
mGzmA In-gel fluorescence: mGzmA In-gel fluorescence:
Supplementary Figure 1. (A) Chemical structure of qABP 7. (B) Labeling of mGzmA (1 µM, 24 h, 37 °C) and hGzmA (100 nM, 2 h, 37 °C) by 1 µM or 100 nM of 5, 6, and 7, respectively. (C) Labeling of mGzmA (1 µM, 24 h, 37 °C) by 200 nM of 5, 6, and 7. […] Protein samples were analyzed by SDS-PAGE and in-gel fluorescence scanning for Cy5 signal. […]
Briefly, hGzmA (50 nM) was incubated with either inhibitor 1 or 2 (200 nM), and GzmA fluorogenic substrate […] (100 µM) in 50 mM Tris, 150 mM NaCl, 0.01% Triton X-100 (pH 8) for 15 hr at 37 °C. Recorded fluorescence at Ex/Em: 380/460 nm for residual GzmA […]
Cat. No. CRL-2570) and 4T1 (ATCC Cat. No. CRL-2539) cells were cultured in RPMI supplemented with 10% fetal bovine serum (FBS), 1% penicillin/streptomycin (PS), and 2 mM L-glutamine, while HEK293T and MDA-MB-231 cells (ATCC Cat. No. HTB-26) were cultured in DMEM supplemented likewise as described above. […] The supernatant was collected, and protein concentration was measured using a Pierce BCA protein assay. […]
C. In-gel fluorescence imaging […]
Conditions for probe/inhibitor treatment for in-gel fluorescence analysis: Inhibitors and probes were incubated with active (or pro-) GzmA followed by treatment with 4X SDS reducing sample buffer. […]

[2] = molecular target: T2, GzmK (Homo sapiens, UniProt P49863); test: Cross-reactivity labeling, GzmK; format: biochemical; conditions: GzmK 100 nM, probe 10-100 nM, 2 h, 37 °C, in-gel fluorescence
T2 sequence (P49863 27-264): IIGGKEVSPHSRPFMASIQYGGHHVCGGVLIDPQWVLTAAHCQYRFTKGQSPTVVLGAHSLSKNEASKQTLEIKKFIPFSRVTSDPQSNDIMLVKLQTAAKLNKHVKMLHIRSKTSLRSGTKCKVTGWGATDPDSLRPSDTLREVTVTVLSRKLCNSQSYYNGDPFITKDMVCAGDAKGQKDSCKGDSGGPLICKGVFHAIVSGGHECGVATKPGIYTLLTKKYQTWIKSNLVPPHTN
Procedure: Protease (100 nM) HNE PR3 GzmK GzmA
Protease (100 nM) GzmA GzmK
Supplementary Figure 2. Cross-reactivity of probes. (A) Labeling of GzmA, GzmK, PR3, and HNE
(100 nM, 2 h, 37 °C) by 100 nM of 5 and 6. (B) Labeling of GzmA and GzmK (100 nM, 2 h, 37 °C) by
100 nM of 3 – 6. (C) Concentration-dependent labeling of GzmA and GzmK (100 nM, 2 h, 37 °C) by 5 and
6. Protein samples were analyzed by SDS-PAGE and in-gel fluorescence scanning for Cy5 signal.
Protein loading was confirmed by SYPRO Ruby staining. […]

Substance | Labeling of mGzmA (in-gel Cy5 fluorescence) [1] | Concentration dependence of labeling of mGzmA ([1]; probe 1, 0.5, 0.2 µM, in-gel fluorescence) | Labeling of GzmK (cross-reactivity) [2]
[Tic]G[Oic]R [compound 6] | efficiently (and slightly more strongly than 5) labeled | concentration‐dependent labeling of mGzmA | labeling was significantly weaker than for GzmA and required considerably higher probe concentrations
IGNR [compound 5] | – | – | labeling was significantly weaker than for GzmA and required considerably higher probe concentrations
GFFR [compound 7] | lower labeling efficiency for both hGzmA and mGzmA compared with probes 5 and 6 | – | –
